According to ChEMBL document CHEMBL1932947, “Emodin inhibits migration and invasion of DLD-1 (PRL-3) cells via inhibition of PRL-3 phosphatase activity” (Bioorg Med Chem Lett, 2012):
The source made the active and inactive calls. The calls are words filed in the database; no cut-off is given here.

Experiments:
[1] = biological target: T1, Protein tyrosine phosphatase type IVA 3 (Homo sapiens, UniProt O75365); experiment: Inhibition of PRL3 after 1 hr by DiFMUP assay
[2] = biological target: T1, Protein tyrosine phosphatase type IVA 3; experiment: Inhibition of PRL-3-mediated cell invasion in human DLD1 cells after 20 hrs using crystal violet staining by Matrigel invasion assay; format: cell-based; settings: DLD-1
Ezrin (Homo sapiens) = Ezrin (Homo sapiens) (UniProt P15311); experiment: Inhibition of ezrin phosphorylation in human DLD1 cells assessed as increase in alpha-ERM-Thr567 phosphorylation at 10 to 40 uM after 15 hrs by chemiluminescence method; format: cell-based; settings: DLD-1
[3] = biological target: T1, Protein tyrosine phosphatase type IVA 3; experiment: Inhibition of PRL3-mediated ezrin phosphorylation in human DLD1 cells assessed as increase in alpha-ERM-Thr567 phosphorylation at 10 to 40 uM after 15 hrs by chemiluminescence method relative to control; format: cell-based; settings: DLD-1
DLD-1 = experiment: Cytotoxicity against human DLD1 cells expressing PRL-3 assessed as inhibition of cell proliferation up to 50 uM after 24 hrs by WST-1 assay; format: cell-based; settings: dld-1, 24 h
[4] = biological target: T1, Protein tyrosine phosphatase type IVA 3; experiment: Inhibition of PRL-3-mediated cell invasion in human DLD1 cells at 40 uM after 20 hrs using crystal violet staining by Matrigel invasion assay; format: cell-based; settings: DLD-1
[5] = biological target: T1, Protein tyrosine phosphatase type IVA 3; experiment: Inhibition of PRL-3-mediated cell migration in human DLD1 cells at 40 uM after 15 hrs by crystal violet staining based microscopic assay; settings: DLD-1
[6] = biological target: T1, Protein tyrosine phosphatase type IVA 3; experiment: Inhibition of PRL-3-mediated cell migration in human DLD1 cells after 15 hrs by crystal violet staining based microscopic assay; settings: DLD-1

T1 sequence (O75365 whole entry): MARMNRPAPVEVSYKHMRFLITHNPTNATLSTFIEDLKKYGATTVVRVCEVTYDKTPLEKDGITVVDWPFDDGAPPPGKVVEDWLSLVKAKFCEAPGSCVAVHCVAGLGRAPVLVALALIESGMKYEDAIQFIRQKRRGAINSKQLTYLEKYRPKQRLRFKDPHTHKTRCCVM
Ezrin (Homo sapiens), sequence (P15311 whole entry): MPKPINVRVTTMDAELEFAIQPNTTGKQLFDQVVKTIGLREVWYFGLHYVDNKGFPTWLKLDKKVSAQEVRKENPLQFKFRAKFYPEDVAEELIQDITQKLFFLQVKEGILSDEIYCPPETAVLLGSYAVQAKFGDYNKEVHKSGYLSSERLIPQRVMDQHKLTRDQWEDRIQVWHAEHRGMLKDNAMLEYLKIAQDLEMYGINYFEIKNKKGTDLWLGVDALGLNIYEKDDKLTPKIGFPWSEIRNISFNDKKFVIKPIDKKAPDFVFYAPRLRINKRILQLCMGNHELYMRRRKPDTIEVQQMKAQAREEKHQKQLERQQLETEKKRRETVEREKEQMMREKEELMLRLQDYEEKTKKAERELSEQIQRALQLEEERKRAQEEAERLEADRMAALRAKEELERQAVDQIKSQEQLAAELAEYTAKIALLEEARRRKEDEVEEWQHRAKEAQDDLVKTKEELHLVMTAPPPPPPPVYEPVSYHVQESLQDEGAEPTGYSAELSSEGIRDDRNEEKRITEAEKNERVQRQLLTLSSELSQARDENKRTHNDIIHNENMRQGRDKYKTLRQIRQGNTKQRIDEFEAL

## Cc1cc(O)c2c(c1)C(=O)c1cc(O)cc(O)c1C2=O [EMODIN]
[1]
  IC50: 3.5 µM
  inhibition: Dose-dependent effect
[2]
  inhibition: Dose-dependent effect
Ezrin (Homo sapiens)
  inhibition: inactive
[3]
  inhibition: Active
DLD-1
  Activity: Non-toxic
[4]
  inhibition: 70%
[5]
  inhibition: > 80%
[6]
  inhibition: Dose-dependent effect
